Data from paper PMC12416277, “Phytochemical alkaloids orchestrate immunometabolism against viral infections” (National Science Review, 2025).

Columns and labels:
STAT1 = experiment: Confocal analysis of nuclear localization of STAT1 in A549 cells; assay type: cell-based
HSV-1 = experiment: microbe, parasite or virus in culture; assay type: cell-based, herpes simplex virus 1 (HSV-1); settings: Human alphaherpesvirus 1, L929
VSV = assay type: cell-based, vesicular stomatitis virus (VSV)
H1N1 [1] = experiment: Viral attachment, entry and post-entry assay, H1N1 in A549 cells; assay type: cell-based, influenza virus A (H1N1)
H1N1 [2] = experiment: H1N1 NP protein in A549 cells (confocal microscopy, immunoblotting); assay type: cell-based, influenza virus A (H1N1)
Description: Cells were lysed in lysis buffer and the protein concentrations were determined using the BCA Protein Assay Kit. Subsequently, the protein samples were separated by SDS-PAGE electrophoresis and transferred to nitrocellulose (NC) membranes, and blocked in 5% skim milk for 1 h at room temperature. Following an overnight incubation at 4°C with specific primary antibodies, the membranes were exposed to the appropriate HPR-conjugated antibodies and visualized using enhanced chemiluminescence.
Cells were fixed with 4% PFA for 20 min, permeabilized with 0.2% Triton X-100 for 20 min, and blocked in 5% BAS for 1 h. After incubating with primary antibodies at 4℃ overnight, fluorescent secondary antibodies (Alexa-488, Alexa-594, Alexa-647) were added at RT for 1 h. Confocal microscopy analyses were carried out using Olympus FV3000 confocal microscope, and Leica TCS SP8 confocal microscope. […] Cells were then analyzed for Filipin staining signals by microscopy in the DAPI channel. […] Cells were then analyzed for signals by microscopy in the AF647 channel.
Figure S2. […] P values were calculated using one-way ANOVA.

[3] = test system: IFNB1, IFIT1, IFIT2 and IFI44 mRNA; experiment: IFNB1 and ISG mRNA expression in A549, PBMC and MEF cells (qRT-PCR); assay type: cell-based; settings: A549, PBMC, MEF cells

Q: COc1ccc2cc1Oc1ccc(cc1)C[C@H]1c3cc(c(OC)cc3CCN1C)Oc1c(OC)c(OC)cc3c1[C@H](C2)N(C)CC3 [Tet, tetrandrine] was tested. Which STAT1 nucleus translocation (STAT1) did it give?
A: The STAT1 nucleus translocation was “promoted STAT1 nucleus translocation”.

Q: What about the EC50 (HSV-1) of the same molecule?
A: Its EC50 is 132 nM.

Q: And the VSV replication (VSV)?
A: The VSV replication was “suppressed”.

Q: And the antiviral efficacy (VSV)?
A: Its antiviral efficacy is “remained unchanged”.

Q: What about the “H1N1 infection during entry or post-entry stages” value (H1N1 [1]) of the same molecule?
A: Its value is “inhibited”.

Q: What about the H1N1 attachment (H1N1 [1]; 4°C) of the same molecule?
A: The H1N1 attachment was “without affecting virus attachment”.

Q: What about the “H1N1 NP protein expression” value (H1N1 [2]) of the same molecule?
A: The value was “effectively reduced”.

Q: And the cytopathic effects (H1N1 [2])?
A: Its cytopathic effects is “without causing cytopathic effects”.

Q: And the “IFNB1 and ISGs mRNA” value [3]?
A: The value was “upregulation”.
